Results as given in patent US20260199270A1, “METHODS FOR TREATING NEURODEGENERATIVE DISORDERS WITH TRAMIPROSATE” (Alzheon, Inc., priority 2022, published 2026).
Entries after “also recorded” stand apart in the source; their conditions may differ.

Key:
Format in all cases: in vivo, human
[1] = Phase 2 trial of ALZ-801: safety, ARIA and macrohemorrhages; settings: 1 year of ALZ-801 treatment
Method: This is further supported by the early significant decrease in the neuronal injury marker plasma p-tau, which indicates decreased amyloid-induced neuronal stress. See e.g., FIG. 3.
Evaluation of disease modifying effects from phase 2 trial of ALZ-801 (valiltramiprosate) in subjects with early Alzheimer's disease were conducted. The study enrolled 84 patients, with early AD, who carry the APOE4/4 or APOE3/4 genotype and have an MMSE score ranging from 22 to 30 (CDR-G 0.5 or 1). Each patient received 265 mg ALZ-801 twice daily. The average MMSE score of the subjects was 26 (mean age 69 years, 52% female). Subjects were either amyloid PET positive or A+/T+ on CSF assays. CSF criteria were: Ratio of Aβ42/40×10<0.61, and p-tau181>61 pg/ml. CSF was evaluated at 52 weeks, and plasma biomarkers at every visit. […]

plasma Aβ42 = experiment: Phase 2 trial of ALZ-801 in early Alzheimer's disease: plasma Aβ42; settings: 52 weeks; 265 mg ALZ-801 orally twice daily; APOE4+ early AD subjects
Method: FIG. 2 illustrates the effect on plasma Abeta42 (change from baseline) following a 52 week treatment with 265 mg ALZ-801 administered orally twice daily to subjects who are APOE4+ and have early AD.
(§1) Evaluation of disease modifying effects from phase 2 trial of ALZ-801 (valiltramiprosate) in subjects with early Alzheimer's disease were conducted. The study enrolled 84 patients, with early AD, who carry the APOE4/4 or APOE3/4 genotype and have an MMSE score ranging from 22 to 30 (CDR-G 0.5 or 1). Each patient received 265 mg ALZ-801 twice daily. The average MMSE score of the subjects was 26 (mean age 69 years, 52% female). Subjects were either amyloid PET positive or A+/T+ on CSF assays. CSF criteria were: Ratio of Aβ42/40×10<0.61, and p-tau181>61 pg/ml. CSF was evaluated at 52 weeks, and plasma biomarkers at every visit.
(§2) These effects were associated with benefits on a composite cognitive outcome that tests memory and learning. […] The HV preservation effects correlate with cognitive benefits (Spearman's coefficient r=0.27, p=0.02).

[2] = Phase 2 trial of ALZ-801: HV atrophy vs matched external control group from ADNI-1; settings: compared to matched external control group from the ADNI-1 observational study; 265 mg twice daily
Method: as §1, §2

plasma p-tau181 = experiment: Phase 2 trial of ALZ-801 in early Alzheimer's disease: plasma p-tau181; settings: 52 weeks; 265 mg ALZ-801 orally twice daily; APOE4+ early AD subjects
Method: FIG. 3 illustrates the effect on plasma p-tau181 (change from baseline) following a 52 week treatment with 265 mg ALZ-801 administered orally twice daily to subjects who are APOE4+ and have early AD.
as §1, §2

plasma Aβ40 = experiment: Phase 2 trial of ALZ-801 in early Alzheimer's disease: plasma Aβ40; settings: 52 weeks; 265 mg ALZ-801 orally twice daily; APOE4+ early AD subjects
Method: FIG. 1 illustrates the effect on plasma Abeta40 (change from baseline) following a 52 week treatment with 265 mg ALZ-801 administered orally twice daily to subjects who are APOE4+ and have early AD.
as §1, §2

With `CC(C)[C@H](N)C(=O)NCCCS(=O)(=O)O` [ALZ-801, valyl-3-amino-1-propanesulfonic acid] the “events of vasogenic edema / amyloid-related imaging abnormalities (ARIA-E; b52: ARIA-E or ARIA-H)” value [1] was “no events”, the “macrohemorrhages (bleeds larger than 1 cm in diameter)” value [1] was “no events; also recorded: no macro-hemorrhages” and the “reduction of plasma Aβ42 compared to baseline” value (plasma Aβ42) was ~ 5%. For the same molecule, the “reduction of HV atrophy” value [2] was 19-23%, the “reduction of plasma p-tau compared to baseline” value (plasma p-tau181) was 41% and the “reduction of plasma Aβ40 compared to baseline” value (plasma Aβ40) was ~ 5%.
